Each structure is given as a SMILES string. Calls of active or inactive are those of the source. No stated cut-off is given here; in the data, actives have a measured IC50 and inactives only a lower limit.

In the assay the target is Envelope glycoprotein gp160 (Human immunodeficiency virus 1, UniProt Q6QLK5). Nature of the assay: cell-free HIV fusion peptide-binding blockers – biochemical, uHTS, fluorescence dequenching, […] (AID 1986).
Sequence of Envelope glycoprotein gp160 (Q6QLK5 whole entry, the tested form may be a part): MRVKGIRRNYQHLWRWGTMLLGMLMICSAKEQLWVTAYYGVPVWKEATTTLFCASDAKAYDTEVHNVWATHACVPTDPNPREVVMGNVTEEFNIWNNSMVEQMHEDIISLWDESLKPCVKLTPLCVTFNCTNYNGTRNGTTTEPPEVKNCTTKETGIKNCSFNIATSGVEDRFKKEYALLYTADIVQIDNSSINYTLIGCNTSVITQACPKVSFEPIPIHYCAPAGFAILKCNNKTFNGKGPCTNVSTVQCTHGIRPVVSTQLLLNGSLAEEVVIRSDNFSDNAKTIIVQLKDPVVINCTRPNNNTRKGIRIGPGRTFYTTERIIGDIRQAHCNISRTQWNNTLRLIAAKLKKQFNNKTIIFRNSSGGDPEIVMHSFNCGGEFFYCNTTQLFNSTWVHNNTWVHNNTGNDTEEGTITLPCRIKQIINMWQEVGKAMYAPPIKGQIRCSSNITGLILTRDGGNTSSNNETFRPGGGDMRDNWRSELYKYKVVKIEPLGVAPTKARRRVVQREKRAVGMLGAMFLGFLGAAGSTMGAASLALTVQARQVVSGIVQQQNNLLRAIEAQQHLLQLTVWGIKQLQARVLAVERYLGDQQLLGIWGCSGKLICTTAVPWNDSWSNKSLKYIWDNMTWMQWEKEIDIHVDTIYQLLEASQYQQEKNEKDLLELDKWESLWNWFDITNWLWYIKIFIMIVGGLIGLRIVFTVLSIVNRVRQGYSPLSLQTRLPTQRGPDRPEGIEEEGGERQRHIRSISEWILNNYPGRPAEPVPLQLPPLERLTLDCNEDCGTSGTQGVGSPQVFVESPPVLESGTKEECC
As a reminder, the IC50 is the concentration at which inhibition is half-maximal. In the case of `O=C(O)c1ccc(-c2ccc(/C=C3\NC(=O)N(Cc4ccc(Cl)cc4)C3=O)o2)cc1Cl`, the IC50 was 10.7 µM (active).
In the case of `Cc1cc(N2C(=O)C(O)=C(C(=O)c3ccc(C)o3)C2c2cccc(Oc3ccccc3)c2)no1` (stereo not given), the IC50 is 24.1 µM (active).
Regarding `Cc1cc(N2C(=O)C(O)=C(C(=O)c3cc4ccccc4o3)C2c2ccc(Cl)cc2)no1` (stereo not given), the IC50 was 15.9 µM (active).
Take `CCOC(=O)c1sc(N2C(=O)C(O)=C(C(=O)c3ccc(C)o3)C2c2cccc([N+](=O)[O-])c2)nc1C` (stereo not given): the IC50 is 17.6 µM (active).
`COc1cccc(C2C3=C(N=c4s/c(=C\c5ccc(OCC(=O)O)cc5)c(=O)n42)c2ccccc2CC3)c1` (stereo not given): the IC50 was 18.6 µM (active).

The values above are taken from ChEMBL document CHEMBL1201862, “PubChem BioAssay data set” (2004).
